Results on 33 compounds are retold here after US11919918B2, “P2X3 andor P2X2/3 receptor antagonist, pharmaceutical composition comprising same, and use thereof” (BEIJING TIDE PHARMACEUTICAL CO., LTD., priority 2017, dated 2024).

The target of one test is human P2X2/3 receptor (Homo sapiens (Human), UniProt P56373+Q9UBL9). The experiment in a line: Inhibitory activity on human P2X2/3 receptor (calcium 6 dye FLIPR assay, agonist α,β-MeATP). In kind it is cell-based. To be noted: HEK293-P2X2/3 stably expressing cell line, FLIPR Tetra. As for the experimental part:
(§1) Biological Assay: Determination of the Inhibitory Activity of the Compounds on Human P2X3 and P2X2/3 Receptors
(§2) Cells were seeded into a poly-D-lysine-coated 384-well cell culture plate (Corning) at a density of 11,000 cells/well/25 μL of cell inoculation medium, and were cultured in a cell incubator overnight. On the day of the test, the calcium 6 dye was diluted to a 2× concentration with a assay buffer, 25 μL of the 2× calcium 6 dye was added to the 384-well cell culture plate, which was incubated at 37° C. for 2 hours, and then placed at room temperature for further use. The test compound and the agonist, α,β-MeATP were diluted to a 7× concentration with the assay buffer, 10 μL of the 7× test compound was added to the 384-well cell culture plate, which was incubated at room temperature for 15 minutes, and 10 μL of the 7× α,β-MeATP was transferred into the 384-well cell culture plate. The data were measured and analyzed using FLIPR Tetra, and the half inhibitory concentration (IC50) of the test compound on P2X3 and P2X2/3 receptors was calculated with the GraphPad Prism four-parameter equation.
(§3) Cell lines: human embryonic kidney cells HEK293-P2X3 and HEK293-P2X2/3 stably expressing cell lines;
(§4) Complete cell culture medium: DMEM High Glucose (Life Technology), which contained 10% fetal bovine serum, 4 mM GlutaMAX, 1% penicillin-streptomycin, and 350 μg/mL G418;
(§5) Cell inoculation medium: DMEM High Glucose (Life Technology), which contained 2% fetal bovine serum, and 4 mM GlutaMAX;
(§6) Cell culture conditions: 37° C., 5% CO2;
(§7) Assay buffer: HBSS (containing calcium and magnesium ions), which contained 20 mM HEPES;
(§8) Detection equipment: FLIPR Tetra (Molecular Devices);

The target of another test is human P2X3 receptor (Homo sapiens (Human), UniProt P56373). Put plainly: Inhibitory activity on human P2X3 receptor (calcium 6 dye FLIPR assay, agonist α,β-MeATP). In kind it is cell-based. To be noted: HEK293-P2X3 stably expressing cell line, FLIPR Tetra. As for the experimental part:
as §1, §2, §3, §4, §5, §6, §7, §8

human P2X2/3 receptor, sequence (Q9UBL9 whole entry): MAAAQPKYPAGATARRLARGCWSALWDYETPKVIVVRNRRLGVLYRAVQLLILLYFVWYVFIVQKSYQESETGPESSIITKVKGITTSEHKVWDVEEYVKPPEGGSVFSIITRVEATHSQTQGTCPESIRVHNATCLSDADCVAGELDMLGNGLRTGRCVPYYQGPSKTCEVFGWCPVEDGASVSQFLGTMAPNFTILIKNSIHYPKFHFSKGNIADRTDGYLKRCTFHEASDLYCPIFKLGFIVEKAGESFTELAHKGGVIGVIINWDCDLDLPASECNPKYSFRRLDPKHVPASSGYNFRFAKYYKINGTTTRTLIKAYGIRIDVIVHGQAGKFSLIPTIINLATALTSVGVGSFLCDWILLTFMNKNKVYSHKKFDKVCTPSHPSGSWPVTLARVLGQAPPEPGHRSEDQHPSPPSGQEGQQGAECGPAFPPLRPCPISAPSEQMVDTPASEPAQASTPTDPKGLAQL
human P2X2/3 receptor, sequence (P56373 whole entry): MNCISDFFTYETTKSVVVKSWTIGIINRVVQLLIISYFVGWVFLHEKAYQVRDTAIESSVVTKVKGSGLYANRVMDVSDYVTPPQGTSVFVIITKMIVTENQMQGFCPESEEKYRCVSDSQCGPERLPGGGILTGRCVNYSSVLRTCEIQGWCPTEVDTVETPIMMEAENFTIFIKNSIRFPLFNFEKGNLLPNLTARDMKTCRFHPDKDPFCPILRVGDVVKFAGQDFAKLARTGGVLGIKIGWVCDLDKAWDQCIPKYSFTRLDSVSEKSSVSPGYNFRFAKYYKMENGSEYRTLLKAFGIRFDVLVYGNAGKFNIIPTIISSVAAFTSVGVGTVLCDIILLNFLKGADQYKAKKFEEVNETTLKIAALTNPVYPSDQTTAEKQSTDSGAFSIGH
human P2X3 receptor, sequence (P56373 whole entry): as above

For orientation: IC50 means the midpoint of a concentration-inhibition curve. For the compound `C#Cc1cc(Oc2cnc(NCC(O)CO)nc2N)c(C(C)C)cn1` (stereo not drawn) [Compound C229, 3-((4-amino-5-((2-ethynyl-5-isopropyl-pyridin-4-yl)oxy)pyrimidin-2-yl)amino) propane-l,2-diol], the values for the IC50 at human P2X2/3 receptor and at human P2X3 receptor were 113 nM and 65 nM, respectively.
The matching figures for `COc1cc(OC)c(C#Cc2cc(Oc3cnc(N)nc3N)c(C(C)C)cn2)c(OC)c1` [Compound C145, 5-((5-isopropyl-2-((2,4,6-trimethoxyphenyl)ethynyl)pyridin-4-yl)oxy)pyrimidine-2,4-diamine]: 623 nM and 809 nM.
The matching figures for `CC(C)c1cnc(C#Cc2ccncc2)cc1Oc1cnc(N)nc1N` [Compound C151, 5-((5-isopropyl-2-(pyridin-4-ylethynyl)pyridin-4-yl)oxy)pyrimidine-2,4-diamine]: 961 nM and 590 nM.
In the case of `CCc1cnc(OC)cc1Oc1cnc(N)nc1N` [Compound C165, 5-((5-ethyl-2-methoxy-pyridin-4-yl)oxy) pyrimidine-2,4-diamine], the figures for the IC50 on human P2X2/3 receptor and on human P2X3 receptor were 338 nM and 163 nM, respectively.
As for `CNCCNc1nc(N)ncc1Oc1cc(Br)ncc1C(C)C` [Compound C202, 5-((2-bromo-5-isopropylpyridin-4-yl)oxy)-N^4-(2-(methylamino)ethyl)pyrimidine-2,4-diamine], the figures for the IC50 at human P2X2/3 receptor and on human P2X3 receptor were 166 nM and 103 nM, respectively.
For `CC(C)c1cnc(C#Cc2ccc(N(C)C)cc2)cc1Oc1cnc(N)nc1N` [Compound C148, 5-((2-((4-(dimethylamino)phenyl)ethynyl)-5-isopropylpyridin-4-yl)oxy) pyrimidine-2,4-diamine], the IC50 came to 113 nM at human P2X2/3 receptor and 215 nM at human P2X3 receptor.
On to `CC(C)c1cnc(C#CC2CC2)cc1Oc1cnc(N)nc1N` [Compound C142, 5-((2-(cyclo-propylethynyl)-5-isopropylpyrdin-4-yl)oxy) pyrimidine-2,4-diamine], for which the IC50 worked out at 549 nM at human P2X2/3 receptor and 302 nM at human P2X3 receptor.
With `CCc1cc(Oc2cnc(N)nc2N)c(C(C)C)cn1` [Compound C15, 5-((2-ethyl-5-isopropylpyridin-4-yl)oxy)pyrimidine-2,4-diamine], the IC50 at human P2X2/3 receptor came out at 793 nM; on human P2X3 receptor, 307 nM.
The matching figures for `C#Cc1cc(Sc2cnc(N)nc2N)c(C(C)C)cn1` [Compound C88, 5-((2-ethynyl-5-isopropyl-pyrdin-4-yl)thio) pyrimidine-2,4-diamine]: 122 nM and 133 nM.
Take `C#Cc1cc(Oc2cnc(N)nc2NCCO)c(C(C)C)cn1` [Compound C211, 2-((2-amino-5-((2-ethynyl-5-isopropylpyridin-4-yl)oxy)pyrimidin-4-yl)amino)ethanol]: the IC50 at human P2X2/3 receptor was 121 nM; on human P2X3 receptor it was 64 nM.
For `CC(C)c1cnc(C#Cc2ccc(C#N)cc2)cc1Oc1cnc(N)nc1N` [Compound C137], in that order: 567 nM and 503 nM.
On to `CC(C)c1cnc(I)cc1Oc1cnc(N)nc1N` [Compound C12, 5-((2-iodo-5-isopropylpyridin-4-yl)oxy)pyrimidine-2,4-diamine], for which the IC50 at human P2X2/3 receptor was determined as 56.7 nM; at human P2X3 receptor, 73.6 nM.
For `C#Cc1cc(Oc2cnc(N)nc2N)c(C(C)C)cn1` [Compound C66, 5-((2-ethynyl-5-isopropylpyridin-4-yl)oxy)pyrimidine-2,4-diamine], in that order: 154 nM and 85 nM.
For the compound `COc1cc(Oc2cnc(N)nc2N)c(C)cn1` [Compound C176, 5-((2-methoxy-5-methylpyridin-4-yl)oxy) pyrimidine-2,4-diamine], the half-maximal inhibitory concentration (IC50) was 984 nM at human P2X2/3 receptor and 611 nM on human P2X3 receptor.
For the compound `C#Cc1cc(Oc2cnc(N)nc2NC)c(C(C)C)cn1` [Compound C213, 5-((2-ethynyl-5-isopropylpyridin-4-yl)oxy)-N^4-methylpyrimidine-2,4-diamine], the IC50 at human P2X2/3 receptor is 295 nM; on human P2X3 receptor, 112 nM.
For `CC(C)c1cnc(N(C)C2CC2)cc1Oc1cnc(N)nc1N` [Compound C65, 5-((2-(cyclopropyl (methyl)amino)-5-isopropylpyridin-4-yl)oxy) pyrimidine-2,4-diamine], the IC50 on human P2X2/3 receptor amounted to 506 nM; on human P2X3 receptor, 334 nM.
For `CC(C)c1cnc(Br)cc1Oc1cnc(N)nc1NCCN(C)C` [Compound C71, 5-((2-bromo-5-isopropylpyridin-4-yl)oxy)-N^4-(2-(dimethylamino)ethyl)pyrimidine-2,4-diamine], in that order: 67 nM and 72 nM.
The matching figures for `CC(C)c1cnc(Br)cc1Oc1cnc(NCCO)nc1N` [Compound C236, 2-((4-amino-5-((2-bromo-5-isopropyl-pyridin-4-yl)oxy)pyrimidin-2-yl)amino)ethanol]: 134 nM and 88 nM.
For `CC#Cc1cc(Oc2cnc(N)nc2N)c(C(C)C)cn1` [Compound C134, 5-((5-isopropyl-2-(prop-1-yn-1-yl)pyridin-4-yl)oxy) pyrimidine-2,4-diamine], in that order: 685 nM and 391 nM.
`C#Cc1cc(Oc2cnc(NCCO)nc2N)c(C(C)C)cn1` [Compound C230, 2-((4-amino-5-((2-ethynyl-5-isopropyl-pyridin-4-yl)oxy)pyrimidin-2-yl)amino) ethanol]: the IC50 on human P2X2/3 receptor stood at 106 nM; on human P2X3 receptor it was 60 nM.
For `CC(C)c1cnc(C#Cc2cccc3cccnc23)cc1Oc1cnc(N)nc1N` [Compound C149, 5-((5-isopropyl-2-(quinolin-8-ylethynyl)pyridin-4-yl)oxy)pyrimidine-2,4-diamine], in that order: 266 nM and 130 nM.
The matching figures for `CC(C)c1cnc(Br)cc1Oc1cnc(N)nc1NC1CC1` [Compound C179, 5-((2-bromo-5-isopropylpyridin-4-yl)oxy)-N^4-cyclopropyl-pyrimidine-2,4-diamine]: 43 nM and 51 nM.
For `COc1cc(Oc2cnc(N)nc2N)c(C(C)C)cn1` [Compound C4, 5-((5-isopropyl-2-methoxypyridin-4-yl)oxy)pyrimidine-2,4-diamine], in that order: 158 nM and 102 nM.
For `CC(C)c1cnc(Br)cc1Oc1cnc(N)nc1NCCN` [Compound C199, N^4-(2-aminoethyl)-5-((2-bromo-5-isopropylpyridin-4-yl)oxy)pyrimidine-2,4-diamine], the IC50 at human P2X2/3 receptor came out at 333 nM; on human P2X3 receptor it was 186 nM.
As for `CC(C)c1cnc(Br)cc1Oc1cnc(NCCO)nc1NCCO` [Compound C226, 2,2′-((5-((2-bromo-5-isopropylpyridin-4-yl)oxy)pyrimidin-2,4-diyl)bis(azanediyl))diethanol], the IC50 at human P2X2/3 receptor was 155 nM; on human P2X3 receptor, 115 nM.
As to `CSc1cc(Sc2cnc(N)nc2N)c(C(C)C)cn1` [Compound C91, 5-((5-isopropyl2-(methylthio)pyridin-4-yl)thio) pyrimidine-2,4-diamine], the IC50 at human P2X2/3 receptor turned out to be 271 nM; at human P2X3 receptor, 227 nM.
`C#Cc1cc(Oc2cnc(N)nc2NCC(O)CO)c(C(C)C)cn1` (stereo not drawn) [Compound C216, 3-((2-amino-5-((2-ethynyl-5-isopropylpyridin-4-yl)oxy)pyrimidin-4-yl)amino)propane-1,2-diol]: the IC50 on human P2X2/3 receptor worked out at 65 nM; on human P2X3 receptor, 62 nM.
For `C#Cc1cc(Oc2cnc(N)nc2N)c(C(=C)C)cn1` [Compound C215, 5-((2-ethynyl-5-(prop-1-en-2-yl)pyridin-4-yl)oxy) pyrimidine-2,4-diamine], in that order: 194 nM and 88.2 nM.
On to `CSc1cc(Oc2cnc(N)nc2N)c(C(C)C)cn1` [Compound C20, 5-((5-isopropyl-2-(methylthio)pyridin-4-yl)oxy)pyrimidine-2,4-diamine], for which the IC50 is 75.7 nM on human P2X2/3 receptor and 44.4 nM at human P2X3 receptor.
In the case of `CC(C)c1ncc(Cl)cc1Oc1cnc(N)nc1N` [Reference Compound C10, 5-((5-chloro-2-isopropylpyridin-3-yl)oxy)pyrimidine-2,4-diamine, reference compound], the IC50 stood at 1820 nM at human P2X2/3 receptor and 2510 nM at human P2X3 receptor.
The matching figures for `CC(C)c1cnc(NCC(F)(F)F)cc1Oc1cnc(N)nc1N` [Compound C152]: 375 nM and 211 nM.
For `C=C(C)c1cnc(OC)cc1Cc1cnc(N)nc1N` [Compound C196, 5-((2-methoxy-5-(prop-1-en-2-yl)pyridin-4-yl)methyl)pyrimidine-2,4-diamine], in that order: 652 nM and 208 nM.
`CC(C)c1cnc(C#Cc2ccccn2)cc1Oc1cnc(N)nc1N` [Compound C150, 5-((5-isopropyl-2-(pyridin-2-ylethynyl)pyridin-4-yl)oxy)pyrimidine-2,4-diamine]: the IC50 at human P2X2/3 receptor came out at 232 nM; at human P2X3 receptor, 211 nM.
